In patent US20100056527A1, “BENZOFURAN COMPOUNDS USEFUL IN THE TREATMENT OF CONDITIONS MEDIATED BY THE ACTION OF PGE2 AT THE EP1 RECEPTOR” (Glaxo Group Limited, priority 2007, published 2010):

Molecular target: T1, human EP1 receptor (Homo sapiens, UniProt P34995)
T1 construct: expressed in transfected cells; host or cells: CHO-K1 cells (membrane fraction)
T1 sequence (P34995 1-402): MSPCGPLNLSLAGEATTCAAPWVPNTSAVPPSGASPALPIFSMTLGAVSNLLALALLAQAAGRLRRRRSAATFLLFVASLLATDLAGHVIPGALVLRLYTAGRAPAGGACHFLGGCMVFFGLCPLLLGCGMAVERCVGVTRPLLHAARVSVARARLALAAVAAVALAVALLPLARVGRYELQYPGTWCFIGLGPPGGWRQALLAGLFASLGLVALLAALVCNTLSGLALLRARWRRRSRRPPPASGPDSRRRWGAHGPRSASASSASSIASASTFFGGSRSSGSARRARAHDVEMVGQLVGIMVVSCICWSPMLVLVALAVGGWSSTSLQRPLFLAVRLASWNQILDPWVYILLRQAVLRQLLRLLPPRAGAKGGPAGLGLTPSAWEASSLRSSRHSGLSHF
Assay: human EP1 calcium mobilization assay (FLIPR, PGE2-induced [Ca2+]i)
Assay type: cell-based
Conditions: CHO-K1 cells transfected with EP1 cDNA; antagonism of PGE2; averages of a number of experiments
Protocol: Briefly, the antagonist properties of compounds are assessed by their ability to inhibit the mobilization of intracellular calcium ([Ca^2+]i) in response to activation of EP1 or EP3 receptors by the natural agonist hormone prostaglandin E2 (PGE2). Increasing concentrations of antagonist reduce the amount of calcium that a given concentration of PGE2 can mobilize. The net effect is to displace the PGE2 concentration-effect curve to higher concentrations of PGE2. The amount of calcium produced is assessed using a calcium-sensitive fluorescent dye such as Fluo-4, AM and a suitable instrument such as a Fluorimetric Imaging Plate Reader (FLIPR). Increasing amounts of [Ca^2+]i produced by receptor activation increase the amount of fluorescence produced by the dye and give rise to an increasing signal. The signal may be detected using the FLIPR instrument and the data generated may be analyzed with suitable curve-fitting software.
The human EP1 or EP3 calcium mobilization assay (hereafter referred to as ‘the calcium assay’) utilises Chinese hamster ovary-K1 (CHO—K1) cells into which a stable (PClN; BioTechniques 20 (1996): 102-110) vector containing either EP1 or EP3 cDNA has previously been transfected. Cells are cultured in suitable flasks containing culture medium such as DMEM:F-12 supplemented with 10% v/v foetal calf serum, 2 mM L-glutamine, 0.25 mg/ml geneticin, 100 μM flurbiprofen and 10 μg/ml puromycin.
For assay, cells are harvested using a proprietary reagent that dislodges cells such as Versene. Cells are re-suspended in a suitable quantity of fresh culture media for introduction into a 384-well plate. Following incubation for 24 hours at 37° C. the culture media is replaced with a medium containing Fluo-4 and the detergent pluronic acid, and a further incubation takes place. Concentrations of compounds are then added to the plate in order to construct concentration-effect curves. This may be performed on the FLIPR in order to assess the agonist properties of the compounds. Concentrations of PGE2 are then added to the plate in order to assess the antagonist properties of the compounds.
The data so generated may be analyzed by means of a computerised curve-fitting routine. The concentration of compound that elicits a half-maximal inhibition of the calcium mobilization induced by PGE2 (pIC50) may then be estimated.
The compounds of Examples 1-28 and 30-156 were tested in the human EP1 calcium mobilization assay. The results are expressed as functional pKi values. A functional pKi is the negative logarithms of the antagonist dissociation constant as determined in the human EP1 calcium mobilization assay. The results given are averages of a number of experiments.

Compound | functional pKi in the human EP1 calcium mobilization assay
Cl.N#Cc1ccc(-c2cc3cc(Cl)cc(Cc4ccc(C(=O)NCC5CCNCC5)o4)c3o2)cc1 [Example 37, 5-{[5-Chloro-2-(4-cyanophenyl)-1-benzofuran-7-yl]methyl}-N-(4-piperidinylmethyl)-2-furancarboxamide hydrochloride] | did not show activity
Cc1cc(C(=O)Nc2ccncc2)nn1Cc1cc(Cl)cc2cc(-c3ccccc3)oc12 [Example 68, 1-[(5-chloro-2-phenyl-1-benzofuran-7-yl)methyl]-5-methyl-N-4-pyridinyl-1H-pyrazole-3-carboxamide] | did not show activity
Cc1cc(C(=O)NC(C)(C)C)nn1Cc1cc(Cl)cc2cc(-c3ccc(F)cc3F)oc12 [Example 112, 1-{[5-chloro-2-(2,4-difluorophenyl)-1-benzofuran-7-yl]methyl}-N-(1,1-dimethylethyl)-5-methyl-1H-pyrazole-3-carboxamide] | did not show activity
CC(C)(C)OC(=O)Nc1ccc(Cc2cc(Cl)cc3cc(-c4ccccc4)oc23)o1 [Example 156, 1,1-Dimethylethyl {5-[(5-chloro-2-phenyl-1-benzofuran-7-yl)methyl]-2-furanyl}carbamate] | did not show activity
